Experiments:
[1] = test system: rabbit articular chondrocytes; assay: Suppression of terminal differentiation of rabbit articular chondrocytes (alkaline phosphatase and alizarin red staining); type: cell-based; settings: BMP-2 100 ng/mL, Compound 7 10^−7 to 10^−5 mol/L, PTH(1-34) 10^−10 to 10^−7 mol/L
Procedure: NZW rabbits (4-week old, Oriental Yeast Co., Ltd.) were euthanized, and then the articular cartilage of the lower leg bone was collected, and transferred to a 50-mL test tube (Nippon Becton Dickinson Company). PBS (Nacalai Tesque, Inc.) containing 1% trypsin (Wako Pure Chemical Industries, Ltd.) was added to this, and the soft tissue was digested at 37° C. for one hour. This was followed by centrifugation at 1,200 rpm for five minutes, then supernatant was removed and PBS(−) was added to suspend the cartilage tissue. This was centrifuged at 1,200 rpm for five minutes, followed by removal of the supernatant, and washed three times by suspending in PBS(−). This was centrifuged at 1,200 rpm for five minutes, and then the cell pellet was digested by treatment with DMEM (Life Technologies Japan, Ltd.) containing 0.2% Type II collagenase (CLS-2, Worthington Biochemical Corp.) at 37° C. for three hours. Fetal bovine serum (Life Technologies Japan, Ltd.) was added at 10% v/v to stop the reaction, and this was vigorously pipetted using a 10-mL pipette (Nippon Becton Dickinson Company) to isolate the chondrocytes. This was centrifuged at 1,200 rpm for five minutes, followed by removal of the supernatant, and washed three times by suspending in 10% FCS-containing DMEM, and the chondrocytes were seeded at 1×10^4 cells/well on an I-type collagen-coated 96-well culture plate (AGC TECHNO GLASS CO., LTD.). Medium exchange was performed three times a week; and after the cells reached confluency, they were cultured in DMEM containing 100 μg/mL L-ascorbic acid phosphate magnesium salt n-hydrate (Wako Pure Chemical Industries, Ltd.), 10 mmol/L β-glycerophosphate pentahydrate (Wako Pure Chemical Industries, Ltd.) and 10% FCS. The following conditions were used to culture the cells, and alkaline phosphatase staining (cultured for 14 days) and alizarin red staining (cultured for 21 days) were performed to evaluate terminal differentiation of chondrocytes.
Alkaline phosphatase staining was performed by discarding the medium, then washing the chondrocytes once with 200 mmol/L Tris-HCl pH8.2 buffer, staining the cells according to the protocol supplied with the alkaline phosphatase staining kit (Vector Red Alkaline Phosphatase Substrate Kit I, Vector Laboratories, Inc.), and taking photographs with an inverted microscope (Nikon Corporation) (4× objective).
Alizarin red staining was performed by discarding the medium, then washing the chondrocytes twice with PBS, fixing the cells using 100% ethanol (Wako Pure Chemical Industries Ltd.) for 15 minutes, discarding the ethanol, and then staining with 1% alizarin red S (Wako Pure Chemical Industries Ltd.) for 15 minutes, followed by washing with distilled water; and photographs were taken with an inverted microscope.

[2] = test system: ovariectomized rats; assay: Bone mineral density after six weeks of repeated administration to ovariectomized rats; type: in vivo, rat; settings: once a day for six weeks, hPTH(1-34) 0.9 nmol/kg subcutaneous
Procedure: Female Crl:CD(SD) rats obtained from Charles River Japan, Inc. were acclimated for one week or longer under standard laboratory conditions of 20° C. to 26° C. and 35% to 75% humidity, and then used in experiments. The rats had free access to tap water and a standard rodent diet (CE-2) (Clea Japan Inc.) containing 1.1% calcium, 1.0% phosphoric acid, and 250 IU/100 g vitamin D3.
Twelve-week old rats were subjected to removal of both ovaries by surgery (OVX) or to sham surgery (Sham). After the body weight was determined in the fourth week after surgery, the rats were divided into groups so that the average body weight of each group of six rats would be even. From the subsequent day after group division, each rat was subjected to repeated administration once a day for six weeks. The solvent for oral administration (vehicle) and the solvent for subcutaneous administration (PC buffer) were respectively administered orally and subcutaneously to rats of the Sham-Control group. Vehicle and PC buffer were orally and subcutaneously administered to rats of the OVX-Control group, respectively. To rats of OVX-Compound 7, the above-mentioned Compound 7 dissolved in the vehicle was orally administered at a dose of 30 mg/kg, and PC buffer was administered subcutaneously. To rats of the OVX-hPTH(1-34) group, the vehicle was orally administered, and hPTH(1-34) dissolved in PC buffer was subcutaneously administered at a dose of 0.9 nmol/kg.
The level of AUC (area under the curve for blood concentration vs. time) was the same as when 20 μg of Forteo®, a therapeutic agent clinically used for osteoporosis, is administered to humans when the administration dose for rats was set to 0.9 nmol/kg. The administration doses were 5 mL/kg for oral administration and 1 mL/kg for subcutaneous administration in all groups. The vehicle used was a composition prepared from 10% dimethyl sulfoxide (Wako Pure Chemical Industries, Ltd.), 10% Kolliphor EL (Sigma-Aldrich Japan), and 10% hydroxypropyl-β-cyclodextrin (Nihon Shokuhin Kako Co., Ltd), whose pH was adjusted to 10 using glycine (Wako Pure Chemical Industries, Ltd.) and sodium hydroxide (Wako Pure Chemical Industries, Ltd.). The PC buffer used was a composition prepared from 25 mmol/L phosphate-citrate buffer, 100 mmol/L NaCl, and 0.05% Tween80, adjusted to pH 5.0. […] The bone mineral densities of the lumbar spine and femur were determined using a dual X-ray bone mineral scanner (DCS-600EX, Aloka). The lumbar spine bone mineral density was determined by measuring the second to fourth lumbar vertebrae; and the femur bone mineral density was determined by vertically dividing the femur into ten parts, and measuring the three parts at the distal end of the knees. […]

[3] = test system: human articular chondrocytes; assay: Proteoglycan synthesis by human articular chondrocytes (35S-sulfate incorporation); type: cell-based; settings: PTH(1-34) 10^−8 mol/L, cultured for 13 days
Procedure: After purchase of cryopreserved human articular chondrocytes (Lot 2867, Cell Applications Inc.), the cells were thawed in a 37° C. water bath, 15 mL of Basal Medium supplemented with 10% Growth Supplement (Growth Medium, Cell Applications Inc.) was placed in a T75 culture flask (CORNING, Corning Japan K. K.) to culture the cells, and exchanged the next day with 15 mL of Growth Medium; and the cells were cultured for three days. Growth Medium was then removed, and HBSS (Cell Applications Inc.) was used to wash the chondrocyte layer. With addition of 1 mL of trypsin/EDTA solution (Cell Applications Inc.), this was left to stand at room temperature for approximately five minutes, and chondrocytes were detached from the flask. With 10 mL of Neutralization solution (Cell Applications Inc.) added, Bulker-Turk hemocytometer was used to determine the cell count, and the cells were then transferred to a 15-mL test tube for centrifugation (1,200 rpm for five minutes, Tomy Seiko Co., Ltd.) to produce a chondrocyte pellet. The supernatant was discarded, and the cells were placed in a 1.2% sodium alginate solution (25 mmol/L HEPES/150 mmol/L sodium chloride solution, pH7.0) at 2×10^6 cells/mL. This was drawn into a 1-mL syringe (Terumo Corporation) equipped with a 22G injection needle, five drops were added to each well of a 24-well plate (Corning Japan K.K.) containing 2 mL of 102 mmol/L aqueous CaCl2 solution, and this was left to stand for five minutes to form beads. Subsequently, this was washed three times with a 150 mmol/L sodium chloride solution and incubated for one day in Growth Medium, and the medium was exchanged with Basal Medium supplemented with 1% Growth supplement (Cell Applications Inc.). In this procedure, the following factors were added to the medium, and the cells were cultured for 13 days with three times of medium exchange performed per week.
On day 12 of culturing, ^35S-labeled sulfuric acid (PerkinElmer Japan Co., Ltd.) was added at 370 kBq/well, and the medium was collected 24 hours later into a test tube and stored at 4° C. To the alginate gel, a 55 mmol/L sodium citrate solution (Nacalai Tesque, Inc.; 1 mL/well) was added, and this was incubated at 37° C. for ten minutes for solation. This was collected into a microtube (Eppendorf AG) and then centrifuged (1,200 rpm, five minutes) to produce a chondrocyte pellet. […] The glass filter was transferred to a liquid scintillation counter vial, 5 mL of scintillator (Hionic-Fluor, PerkinElmer Japan Co., Ltd.) was added and radioactivity was measured on a liquid scintillation counter (TRI-CARB, PerkinElmer Japan Co., Ltd.).
The remaining 0.1 mL of the digested solution was used for DNA quantification. […]

hPTH(1-34): Human PTH(1-34) peptide purchased from Peptide Institute, Inc.; positive control [reference compound]
alkaline phosphatase activity (alkaline phosphatase staining) ([1]; cultured for 14 days): suppressed alkaline phosphatase activity in a concentration-dependent manner | alizarin red staining property (calcification) ([1]; cultured for 21 days): suppressed the alizarin staining property in a concentration-dependent manner | percentage of increase in femur bone mineral density with respect to the OVX-Control group ([2]; Compound 7 30 mg/kg oral): 8% | percentage of increase in lumbar spine bone mineral density with respect to the OVX-Control group [2]: 12% | radioactivity (proteoglycan synthesis, cpm/μg DNA) relative to the vehicle control [3]: 6 fold

Reference: patent publication US9993462B2, “Hydantoin derivative-containing pharmaceutical composition” (Chugai Seiyaku Kabushiki Kaisha, priority 2014, dated 2018)
